Values joined by “and” are separate entries in the source; they are usually repeats but may differ in a detail not shown here. Identical values can stand only once.
Key:
[1] = Hepatocyte intrinsic clearance assay (metabolic stability), human hepatocytes; format: in vitro ADME; conditions: male, human, cryopreserved pooled hepatocytes, Human Hepatocytes, 1 μM test compound
Excerpt: (§1) The liver is an important organ in the body for drug metabolism. This Example describes hepatocyte intrinsic clearance assays using both human and rat hepatocytes to evaluate the metabolic stability of the indole compounds disclosed herein. The parameters measured include t1/2 (half-life), CLint (intrinsic clearance), and EH (hepatic extraction ratio).
(§2) Testosterone (Lot FE111011-01) was obtained from Cerilliant (Round Rock, Tex.). 7-hydroxycoumarin (Lot 11631ED) was obtained from Sigma Aldrich (St. Louis, Mo.). Cryopreserved human hepatocytes pooled from ten donor males (X008001), cryopreserved male IRC/CD-1 mouse hepatocytes (M005052), INVITROGRO HI Medium (incubation), and INVITROGRO HT Medium (thawing) were obtained from Bioreclamation IVT (Baltimore, Md.). All solvents were obtained from commercial sources and used without further purification.
(§3) Each test compound was prepared as a 1 mM stock solution in DMSO. A 2 μM solution of test compound and positive controls were prepared in INVITROGRO HI Medium (incubation). These solutions were pre-warmed in a sterile incubator set to maintain 37° C., 5% CO2, and 98% humidity. Cryopreserved hepatocytes were prepared at a concentration of 2×10^6 living cells/mL in incubation media and pre-warmed in the incubator. The compound solutions and hepatocyte mixtures were then combined at a ratio of 1:1 (v:v). The final volume of the reaction mixture was 750 μL, containing 1 μM test compound (10 μM for 7-hydroxycoumarin) and […]. The reaction mixture was placed in the incubator on a plate shaker. After 0, 15, 30, 60, 90, and 120 minutes of incubation, 100 μL of reaction mixtures were removed from the incubation plate and mixed with 150 μL of ice-cold acetonitrile in a designated well of a 96-well crash plate. The 96-well crash plate was placed on ice for 15 min, and samples were centrifuged (3,600 RPM, 10 min, 4° C.) to precipitate protein. The supernatants were diluted 1:1 (v:v) with water containing 0.15 μM verapamil and/or 1 μM tolbutamide (internal standards for positive and negative modes, respectively) in a 96-well shallow injection plate. This plate was sealed for LC-MS analysis. All measurements were done in duplicate.
(§4) The residual compound remaining (% R) was determined from LC-MS peak areas by comparison to the zero time point. Metabolic half-life (t1/2) and intrinsic clearance (CLint) values were calculated from the slope of the plot of ln (% R) vs. time and the concentration of hepatocytes present in the incubation. Percent remaining at 60 minutes was calculated by plugging in the 60 minute value into the slope equation generated by the percent remaining time points.
(§5) In vivo hepatic clearance CLH was calculated using the well stirred liver model according to the following equation:
(§6) [formula] where QH is the total liver blood flow, fu is unbound fraction of the drug, and CL′int is defined as follows: CL′int=CLint×(10^6 cells/g of liver weight)×(g liver weight/kg of body weight). In the first approximation, used in this study, fu=1.
(§7) Hepatic extraction ratio EH was calculated using the following equation:
(§8) [formula] Corresponding physiological parameters used in calculations for all species are shown below in Table 3.

human hepatocytes = assay: as above; format: in vitro ADME; conditions: Human Hepatocytes; for EH (hepatic extraction ratio): well stirred liver model, fu=1
Excerpt: as §1, §2, §3, §4, §5, §6, §7, §8

[2] = Hepatocyte intrinsic clearance assay (metabolic stability), rat hepatocytes; format: in vitro ADME; conditions: rat, cryopreserved hepatocytes, Rat Hepatocytes, 1 μM test compound
Excerpt: as §1, §2, §3, §4, §5, §6, §7, §8

rat hepatocytes = assay: as above; format: in vitro ADME; conditions: Rat Hepatocytes; for EH (hepatic extraction ratio): well stirred liver model, fu=1
Excerpt: as §1, §2, §3, §4, §5, §6, §7, §8

AhR = target: T1, AhR (Homo sapiens, UniProt P35869); assay: EROD assay (7-ethoxy-resorufin-O-deethylase; CYP1A1 activity) in human HepG2 cells; format: cell-based
T1 construct: host or cells: human HepG2 cells
T1 sequence (P35869 11-848): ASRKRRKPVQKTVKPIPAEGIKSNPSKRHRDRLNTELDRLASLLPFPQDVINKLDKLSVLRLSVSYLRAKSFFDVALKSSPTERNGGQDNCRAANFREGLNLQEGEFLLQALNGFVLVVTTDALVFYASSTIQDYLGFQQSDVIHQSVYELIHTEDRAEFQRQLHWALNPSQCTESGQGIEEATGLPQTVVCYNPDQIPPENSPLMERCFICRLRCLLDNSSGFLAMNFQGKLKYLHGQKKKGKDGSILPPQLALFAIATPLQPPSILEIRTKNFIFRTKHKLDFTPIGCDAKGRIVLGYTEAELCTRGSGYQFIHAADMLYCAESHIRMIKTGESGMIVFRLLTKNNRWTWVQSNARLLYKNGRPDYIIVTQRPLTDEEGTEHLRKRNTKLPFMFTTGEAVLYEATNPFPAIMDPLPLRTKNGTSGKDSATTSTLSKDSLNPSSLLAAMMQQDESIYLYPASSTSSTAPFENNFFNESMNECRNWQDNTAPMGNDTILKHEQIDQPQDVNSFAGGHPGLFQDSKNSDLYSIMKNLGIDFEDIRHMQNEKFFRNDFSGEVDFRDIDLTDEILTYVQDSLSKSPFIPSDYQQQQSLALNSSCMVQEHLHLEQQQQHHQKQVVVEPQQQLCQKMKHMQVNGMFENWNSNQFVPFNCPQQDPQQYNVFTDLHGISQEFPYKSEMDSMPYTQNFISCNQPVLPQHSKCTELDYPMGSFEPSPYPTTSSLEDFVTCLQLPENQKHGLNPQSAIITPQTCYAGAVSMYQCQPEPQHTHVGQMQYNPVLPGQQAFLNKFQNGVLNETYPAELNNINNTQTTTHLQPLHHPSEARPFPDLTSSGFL
Procedure: CYP1A1 induction is under the control of the AhR signaling pathway. This Example describes an in vitro assay (7-ethoxy-resorufin-O-deethylase (EROD) assay) that evaluated the AhR modulating activities of the indole compounds described herein. In this assay, the indole compounds were incubated with human HepG2 cells or mouse Hepa1-6 cells. The activity of CYP1A1 in the cells was measured by the conversion of substrate 7-ethoxyresorufin, with the readout being a fluorescence signal associated with the conversion product. The EC50 values of the indole compounds as well as the maximum luminescence induced by them in the assay were determined.
Human HepG2 cells were obtained from Sigma Aldrich (Catalog 85011430-1VL).
Human HepG2 cells were grown to 60-80% confluency in tissue culture flasks, lifted with non-enzymatic cell dissociation solution (cell stripper), seeded in a 384-well plate at 5,000 cells per well, treated with the test compounds, and incubated for 20 hours overnight at 37° C. The treatment medium was removed and a solution of substrate 7-ethoxyresorufin (ETX) was added to initiate the reaction. The plate was incubated at 37° C. for 30 minutes. The reaction was subsequently terminated by adding tempered methanol. Fluorescent emission was measured at 590 nm with excitation at 530 nm in a FLEXSTATION III instrument (Molecular Devices).

[3] = CYP profiling: turnover in human liver microsomes, 30 min, no inhibitor; format: in vitro ADME; parameters: % Compound Metabolized at 30 min, No Inhibitor: concentration or dose not given beside the values; conditions: HLMs
Procedure: (§9) In order to investigate the contributions of CYP1A2 and CYP3A4 to the metabolism of the compounds of the present disclosure, human liver microsomes were incubated with the test compounds for 30 minutes in the presence of selective chemical inhibitors furafylline (1A2) and ketoconazole (3A4).

CYP1A2 = target: T2, CYP1A2 (Homo sapiens, UniProt P05177); assay: CYP profiling: human liver microsomes with CYP1A2 inhibitor furafylline; format: in vitro ADME; parameters: % Compound Metabolized at 30 min, CYP1A2 Inhibitor: concentration or dose not given beside the values; conditions: HLMs; for % Inhibition Relative to Negative Control, 1A2: 30 min
T2 construct: from tissue; host or cells: human liver microsomes
T2 sequence (P05177 1-516): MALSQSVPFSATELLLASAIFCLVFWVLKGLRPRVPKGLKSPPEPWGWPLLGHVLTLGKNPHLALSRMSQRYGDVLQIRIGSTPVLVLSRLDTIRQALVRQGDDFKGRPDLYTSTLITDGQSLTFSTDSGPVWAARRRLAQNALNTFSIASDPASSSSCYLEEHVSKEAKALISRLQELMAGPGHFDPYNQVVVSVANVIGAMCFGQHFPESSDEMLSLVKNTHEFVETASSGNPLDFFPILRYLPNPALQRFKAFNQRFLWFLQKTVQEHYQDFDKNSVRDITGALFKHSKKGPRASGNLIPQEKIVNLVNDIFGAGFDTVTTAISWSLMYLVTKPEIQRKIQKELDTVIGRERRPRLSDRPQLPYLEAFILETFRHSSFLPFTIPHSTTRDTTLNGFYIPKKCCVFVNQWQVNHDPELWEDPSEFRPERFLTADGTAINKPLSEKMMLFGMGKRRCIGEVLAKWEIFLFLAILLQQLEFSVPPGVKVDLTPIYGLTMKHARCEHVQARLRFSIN
Procedure: as §9

CYP3A4 = target: T3, CYP3A4 (Homo sapiens, UniProt P08684); assay: CYP profiling: human liver microsomes with CYP3A4 inhibitor ketoconazole; format: in vitro ADME; parameters: % Compound Metabolized at 30 min, CYP3A4 Inhibitor: concentration or dose not given beside the values; conditions: HLMs; for % Inhibition Relative to Negative Control, 3A4: 30 min
T3 construct: from tissue; host or cells: human liver microsomes
T3 sequence (P08684 whole entry): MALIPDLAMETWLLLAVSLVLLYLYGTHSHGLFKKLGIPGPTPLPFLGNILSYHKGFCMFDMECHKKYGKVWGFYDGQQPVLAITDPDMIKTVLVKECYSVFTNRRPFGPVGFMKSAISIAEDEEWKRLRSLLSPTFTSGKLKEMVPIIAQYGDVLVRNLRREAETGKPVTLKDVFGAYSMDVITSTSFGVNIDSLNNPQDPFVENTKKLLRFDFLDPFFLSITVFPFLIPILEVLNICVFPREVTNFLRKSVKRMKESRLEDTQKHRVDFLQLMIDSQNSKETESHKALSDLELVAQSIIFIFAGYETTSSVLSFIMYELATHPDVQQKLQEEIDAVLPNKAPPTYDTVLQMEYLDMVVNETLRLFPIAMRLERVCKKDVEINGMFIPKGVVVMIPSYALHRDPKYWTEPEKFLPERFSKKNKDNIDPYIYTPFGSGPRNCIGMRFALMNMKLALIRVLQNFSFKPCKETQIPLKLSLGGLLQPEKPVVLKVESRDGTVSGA
Procedure: as §9

[4] = HepG2, human HepG2 cells, Plate 1

| SMILES | half-life at 1 μM [1] [min] | hepatocyte CLint at 1 μM [1] [µL/min/1e6 cells] | EH (hepatic extraction ratio) (human hepatocytes) [%] | half-life at 1 μM [2] [min] | hepatocyte CLint at 1 μM [2] [µL/min/1e6 cells] | EH (hepatic extraction ratio) (rat hepatocytes) [%] | EC50 (AhR; human HepG2 cells, Plate 1) [nM] | EC90 (AhR; human HepG2 cells, Plate 1) [nM] | EC50 (AhR; human HepG2 cells, Plate 2) [nM] | EC90 (AhR; human HepG2 cells, Plate 2) [nM] | CLint (human hepatocytes; 1 μM test compound) [μL/min/10^6 cells] | CLint (rat hepatocytes; 1 μM test compound) [μL/min/10^6 cells] | EC90 (AhR; [4]) [nM] | % Compound Metabolized at 30 min, No Inhibitor [3] | % Compound Metabolized at 30 min, CYP1A2 Inhibitor (CYP1A2) | % Inhibition Relative to Negative Control, 1A2 (CYP1A2) | % Compound Metabolized at 30 min, CYP3A4 Inhibitor (CYP3A4) | % Inhibition Relative to Negative Control, 3A4 (CYP3A4) |
| --- | --- | --- | --- | --- | --- | --- | --- | --- | --- | --- | --- | --- | --- | --- | --- | --- | --- | --- |
| O=C(c1nc(C(O)C(F)(F)F)cs1)c1c[nH]c2ccccc12 (stereo not drawn) [ARI088] | 54 | 12.4 | 24.1 | 60 | 11.6 | 43.7 | – | – | – | – | – | – | – | – | – | – | – | – |
| CCC(C)(O)c1csc(C(=O)c2c[nH]c3cc(F)ccc23)n1 (stereo not drawn) [ARI209, (6-fluoro-1H-indol-3-yl)(4-(2-hydroxybutan-2-yl)thiazol-2-yl)methanone] | 48 | 14.7 | 25.0 | 54 | 12.2 | 44.9 | – | – | – | – | – | – | – | – | – | – | – | – |
| COC(=O)c1csc(C(=O)c2c[nH]c3ccccc23)n1 [ARI-001, ITE, reference compound] | – | – | 31.3 | – | – | 85.7 | 4440 | 13200 | 29000 | 458000 | 767.365 | 89.786 | – | – | – | – | – | – |
| CC[C@H](O)c1csc(C(=O)c2c[nH]c3ccc(F)cc23)n1 [ARI-194] | 36 | 20.5 | 26.5 | 36 | 18.2 | 55.0 | 409 | – | – | – | – | – | 517 | – | – | – | – | – |
| CC[C@@H](O)c1csc(C(=O)c2c[nH]c3ccc(F)cc23)n1 [ARI-195] | 36 | 20.6 | 26.5 | 78 | 9.16 | 38.0 | 289 | – | – | – | – | – | 847 | – | – | – | – | – |
| CCC(O)(CC)c1csc(C(=O)c2c[nH]c3cc(F)ccc23)n1 [ARI-210, (6-fluoro-1H-indol-3-yl)(4-(3-hydroxypentan-3-yl)thiazol-2-yl)methanone] | 42 | 16 | 25.4 | 24 | 29.9 | 66.7 | 241 | – | – | – | – | – | 627 | – | – | – | – | – |
| CC[C@H](O)c1nc(C(=O)c2c[nH]c3cc(F)ccc23)cs1 [ARI-213] | 48 | 14 | 24.7 | 48 | 13.9 | 48.1 | 476 | – | – | – | – | – | 672 | – | – | – | – | – |
| CC[C@@H](O)c1nc(C(=O)c2c[nH]c3cc(F)ccc23)cs1 [ARI-214] | 30 | 21.5 | 26.7 | 84 | 8.01 | 34.9 | 582 | – | – | – | – | – | 2810 | – | – | – | – | – |
| CC(C)(O)c1csc(C(=O)c2c[nH]c3ccccc23)n1 [ARI-215, (1H-indol-3-yl)(4-(2-hydroxypropan-2-yl)thiazol-2-yl)methanone] | 36 | 17.9 | 25.9 | 54 | 13.4 | 47.3 | 119 | – | – | – | – | – | 135 | – | – | – | – | – |
| Cc1ncc2n1-c1ccc(Cl)cc1C(c1ccccc1F)=NC2 [Midazolam] | – | – | – | – | – | – | – | – | – | – | – | – | – | 98% and 97% | 96% | 2% | 1% and 0% | 99% and 100% |
| CCOc1ccc(NC(C)=O)cc1 [Phenacitin] | – | – | – | – | – | – | – | – | – | – | – | – | – | 36% and 31% | 3% and 1% | 92% and 97% | 23% | 36% |

Source: patent US11390621B2, “Chiral indole compounds and their use” (ARIAGEN, INC., priority 2019, dated 2022)
